Experimental data from the supplement of paper PMC5844555.

Tests used:
Experiment in all cases: 3' UTR reporter interaction score (median-centred robust z-score of log2 firefly/Renilla activity); higher = less repression of the 3' UTR reporter
Settings in all cases: HEK293T; 48 h
MYB = system: MYB
In short: (§1)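 A firefly luc2P reporter carrying the gene's 3' UTR (100 ng), Renilla pRL-TK control (20 ng) and miRNA mimic (2.5 pmol) were co-transfected with DharmaFECT Duo into HEK293T cells plated at 10,000/well in 96-well plates. Luciferase activities were read 48 h post-transfection. The interaction score is the log firefly/Renilla ratio as a per-plate robust z-score from median and median absolute deviation, median-centred per miRNA, and more negative indicates interaction. Values are averages of at least two independent screens.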

EZH2 = system: EZH2
In short: as §1

PHOX2B = system: PHOX2B
In short: as §1

MYC = system: MYC
In short: as §1

PHF6 = system: PHF6
In short: as §1

BRCA2 = system: BRCA2
In short: as §1

HRAS = system: HRAS
In short: as §1

NOTCH1 = system: NOTCH1
In short: as §1

MYT1L = system: MYT1L
In short: as §1

MYCN = system: MYCN
In short: as §1

TP53 = system: TP53
In short: as §1

ZEB2 = system: ZEB2
In short: as §1

FBXW7 = system: FBXW7
In short: as §1

RB1 = system: RB1
In short: as §1

Row | Sequence | 3' UTR reporter interaction score (MYB) | 3' UTR reporter interaction score (EZH2) | 3' UTR reporter interaction score (PHOX2B) | 3' UTR reporter interaction score (MYC) | 3' UTR reporter interaction score (PHF6) | 3' UTR reporter interaction score (BRCA2) | 3' UTR reporter interaction score (HRAS) | 3' UTR reporter interaction score (NOTCH1) | 3' UTR reporter interaction score (MYT1L) | 3' UTR reporter interaction score (MYCN) | 3' UTR reporter interaction score (TP53) | 3' UTR reporter interaction score (ZEB2) | 3' UTR reporter interaction score (FBXW7) | 3' UTR reporter interaction score (RB1)
1 | UAGCAGCACGUAAAUAUUGGCG | 0.8 | 0.0745 | -0.629 | 0.946 | -0.551 | -0.0822 | -0.0204 | -0.0927 | -0.142 | 0.0935 | -0.054 | 0.217 | -0.915 | -0.115
2 | UAGCAGCGGGAACAGUUCUGCAG | -2.27 | -0.757 | -0.446 | 0.339 | 0.822 | 0.681 | -0.261 | 9.71e-17 | -3.34 | 0.142 | 1.12 | 0.481 | -2.86 | 0.756
3 | UAGCUUAUCAGACUGAUGUUGA | 0.65 | 0.437 | 0.355 | -0.465 | 0.231 | -0.228 | -0.166 | -0.0874 | -0.0152 | -0.604 | -0.564 | -0.0716 | 0.067 | 0.943
4 | UAGGCAGUGUCAUUAGCUGAUUG | -2.78 | -5.52 | 1.92 | -5.22 | 0.274 | 1.04 | 1.22 | -2.66 | 0.837 | -3.63 | 0.66 | -1.58 | -1.11 | -0.567
5 | UAGGUAGUUUCAUGUUGUUGG | -1.52 | -1.54 | 1.68 | -1.91 | -0.281 | 0.216 | -0.663 | -0.0228 | 1.55 | -1.16 | 0.576 | 0.231 | 1.58 | 0.553
6 | UAGGUUAUCCGUGUUGCCUUCG | 1.02 | 0.345 | 0.827 | -0.452 | 1.26 | -0.557 | 0.327 | 0.0096 | -0.174 | 0.616 | -0.804 | 0.258 | -0.104 | -0.0884
7 | UAGUACCAGUACCUUGUGUUCA | -2.96 | 0.789 | -0.362 | 0.000513 | -0.322 | -0.45 | 0.088 | -0.471 | 0.421 | 0.174 | -0.292 | 1.08 | 0.884 | 0.0822
8 | UAGUGCAAUAUUGCUUAUAGGGUUU | -2.42 | -1.22 | -0.0733 | 0.454 | 0.108 | -0.656 | 0.0165 | 0.766 | 0.572 | 0.515 | -1.04 | -0.0644 | 0.629 | 1.16
9 | UAUACAAGGGCAAGCUCUCUGU | 0.159 | -0.739 | 0.912 | 0.32 | 0.0525 | -0.0857 | 0.186 | -0.0974 | 0.075 | -1.08 | -0.221 | -0.506 | 0.144 | 0.0344
10 | UAUGCAUUGUAUUUUUAGGUCC | -1.29 | 0.224 | -2.52 | 0.248 | -1.28 | 0.674 | 0.558 | 0.872 | -0.778 | -0.281 | -0.83 | -1.13 | -0.388 | 0.308
11 | UAUGGCACUGGUAGAAUUCACUG | 0.482 | 0.196 | 0.374 | 0.422 | -1.31 | 0.00324 | -0.187 | -0.295 | 0.00898 | 0.735 | -0.0687 | -2.1 | 0.255 | -0.628
12 | UAUGGCUUUUCAUUCCUAUGUG | -0.208 | 0.203 | 0.949 | -0.427 | -0.00424 | -1.68 | -0.329 | 0.259 | 0.255 | 0.938 | 0.354 | 0.267 | 0.501 | -1.89
13 | UAUGGCUUUUUAUUCCUAUGUGA | -0.0826 | 0.742 | -1.06 | -0.0719 | 0.879 | 0.03 | -0.268 | -0.625 | 0.172 | 0.776 | 0.14 | 0.676 | 0.0824 | -0.178
14 | UAUGUAAUAUGGUCCACAUCUU | 0.474 | -0.223 | 0.805 | 0.455 | -0.945 | -0.619 | -0.0539 | 0.765 | 1.41 | 0.254 | -0.793 | -1.16 | 0.706 | 0.421
15 | UAUGUGCCUUUGGACUACAUCG | 0.663 | -0.568 | -3.33 | 0.403 | 0.707 | -1.13 | -0.0556 | 0.00167 | -1.09 | 0 | -0.404 | 0.0793 | 0.444 | 0.319
16 | UAUGUGGGAUGGUAAACCGCUU | 1.45 | 0.226 | -0.0868 | 0.022 | -0.864 | -0.81 | -0.809 | 0.24 | -2.09 | 0.212 | -0.352 | 2.77 | 1.55 | 0.217
17 | UAUUGCACUCGUCCCGGCCUC | 0.69 | -0.851 | 1.55 | 0.586 | 0.726 | 0.27 | -0.467 | -1.13 | -1.11 | 1.3 | -0.261 | -1.97 | -2.89 | 0.116
